Laboratory results: article PMC6606608, “Chemical logic of MraY inhibition by antibacterial nucleoside natural products” (Nature Communications, 2019)
Like-named read-outs stand apart in the source and are kept apart here.

Tests used:
[1] = biological target: T1, MraYAA (phospho-MurNAc-pentapeptide translocase, MraY) (Aquifex aeolicus, UniProt O66465); assay: X-ray crystal structure ([…] Å); UMP-Glo enzyme inhibition IC50; type: biochemical
T1 construct: Codon-optimized His-MBP-PreScission fusion, E. coli C41(DE3), DDM-extracted, tag cleaved; IC50 on MraYAA alone (NB7 only in crystals)
T1 sequence (O66465 1-359): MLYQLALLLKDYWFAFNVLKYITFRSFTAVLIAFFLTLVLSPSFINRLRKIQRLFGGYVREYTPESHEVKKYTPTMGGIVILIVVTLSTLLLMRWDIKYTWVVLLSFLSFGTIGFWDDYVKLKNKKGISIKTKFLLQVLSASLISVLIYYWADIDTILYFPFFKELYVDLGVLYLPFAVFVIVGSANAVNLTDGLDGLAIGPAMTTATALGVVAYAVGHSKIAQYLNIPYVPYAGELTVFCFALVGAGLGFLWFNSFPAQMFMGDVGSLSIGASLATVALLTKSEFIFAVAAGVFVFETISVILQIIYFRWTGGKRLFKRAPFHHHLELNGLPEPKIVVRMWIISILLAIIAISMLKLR

[2] = biological target: T1, MraYAA (phospho-MurNAc-pentapeptide translocase, MraY); assay: as above; type: biochemical; remark: listed apart in the source

| Structure (SMILES) | IC50 [1] | IC50 [2] |
| --- | --- | --- |
| CO[C@H]1[C@@H](O)[C@H](n2ccc(=O)[nH]c2=O)O[C@@H]1[C@@H](O[C@H]1OC(C(=O)N[C@H]2CCCCNC2=O)=C[C@H](O)[C@@H]1O)C(N)=O [capuramycin] | 185 nM |  |
| CSCC[C@H](NC(=O)N[C@@H](Cc1cccc(O)c1)C(=O)O)C(=O)N[C@H](C(=O)N/C=C1/O[C@@H](n2ccc(=O)[nH]c2=O)[C@H](O)[C@@H]1O)[C@H](C)N(C)C(=O)[C@@H](N)Cc1cccc(O)c1 [3′-hydroxymureidomycin A] |  | 52 nM |
